The values that follow are results of earlier work, collected in patent publication US20220016082A1, “COMBINATION THERAPIES FOR HIGH AND VERY HIGH RISK MDS” (MEI Pharma, Inc., priority 2018, published 2022).

For series [1], the system named is Higher-Risk Myelodysplastic Syndromes and Chronic Myelomonocytic Leukemia. To be noted: arms N = 92 / 93 / 92; total N = 277.
Another series deals with MDS. The note with it: N = 179.

As for `Nc1ncn([C@@H]2O[C@H](CO)[C@@H](O)[C@H]2O)c(=O)n1` [AZA Monotherapy, 5-azacytidine], in series [1], the “CR (of CR/PR/HI)” value is given as 24%, the “HI (of CR/PR/HI)” value is 14%, the “Marrow CR” value is 12% and the “ORR = CR + PR + mCR” value is reported as 38%. For the same compound, the “PR (of CR/PR/HI)” value in series [1] is reported as 0%. For the same compound, in the series with MDS, the “CR (of CR + PR)” value is recorded as 17%, the “CR + PR” value is recorded as 29%, the HI was 49% and the “PR (of CR + PR)” value is 12%.
